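Assay format: 96-well plates, 48-hour exposure. At the TGI there is no net growth.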
How the values were obtained:
Test in all cases: NCI anticancer screen, dose series, 48 h
[1] = test system: KM12 colon
[2] = test system: CCRF-CEM leukemia
[3] = test system: SF-295 CNS
[4] = test system: TK-10 renal
[5] = test system: MALME-3M melanoma
[6] = test system: MDA-N
[7] = test system: 786-0 renal
[8] = test system: OVCAR-5 ovarian
[9] = test system: DU-145 prostate
[10] = test system: UACC-62 melanoma
[11] = test system: UO-31 renal
[12] = test system: IGROV1 ovarian
[13] = test system: SW-620 colon
[14] = test system: SR leukemia
[15] = test system: MCF7 breast
[16] = test system: HL-60(TB) leukemia
[17] = test system: HCT-116 colon
[18] = test system: MDA-MB-435
[19] = test system: OVCAR-4 ovarian
[20] = test system: NCI-H522 lung
[21] = test system: NCI/ADR-RES ovarian
[22] = test system: CAKI-1 renal
[23] = test system: SK-MEL-5 melanoma
[24] = test system: HOP-62 NSCLC
[25] = test system: ACHN renal
[26] = test system: SF-539 CNS
[27] = test system: SK-MEL-2 melanoma
[28] = test system: MDA-MB-231 breast
[29] = test system: OVCAR-3 ovarian
[30] = test system: SF-268 CNS
[31] = test system: LOX IMVI melanoma
[32] = test system: HS 578T breast
[33] = test system: HT29 colon
[34] = test system: UACC-257 melanoma
[35] = test system: COLO 205 colon
[36] = test system: HOP-92 NSCLC
[37] = test system: K-562 leukemia
[38] = test system: EKVX NSCLC
[39] = test system: SNB-19 CNS
[40] = test system: A549 NSCLC
[41] = test system: RPMI-8226 leukemia
[42] = test system: NCI-H23 lung
[43] = test system: BT-549 breast
[44] = test system: SN12C renal
[45] = test system: NCI-H226 lung
[46] = test system: RXF 393 renal
[47] = test system: SK-MEL-28 melanoma
[48] = test system: HCC-2998 colon
[49] = test system: U251 CNS
[50] = test system: NCI-H460 lung
[51] = test system: MOLT-4 leukemia
[52] = test system: PC-3 prostate
[53] = test system: M14 melanoma
[54] = test system: SK-OV-3 ovarian
[55] = test system: A498 renal
[56] = test system: SNB-75 CNS
[57] = test system: HCT-15 colon
[58] = test system: OVCAR-8 ovarian
[59] = test system: T-47D breast

Compound: C=C(Cl)C(=C)CCC(Cl)C(C)C (centres undefined)
- TGI [1]: > 100 µM
- TGI [2]: > 100 µM
- TGI [3]: > 100 µM
- TGI [4]: > 100 µM
- TGI [5]: > 100 µM
- TGI [6]: > 100 µM
- TGI [7]: > 100 µM
- TGI [8]: > 100 µM
- TGI [9]: > 100 µM
- TGI [10]: > 100 µM
- TGI [11]: > 100 µM
- TGI [12]: > 100 µM
- TGI [13]: > 100 µM
- TGI [14]: > 100 µM
- TGI [15]: > 100 µM
- TGI [16]: > 100 µM
- TGI [17]: > 100 µM
- TGI [18]: > 100 µM
- TGI [19]: > 100 µM
- TGI [20]: > 100 µM
- TGI [21]: > 100 µM
- TGI [22]: > 100 µM
- TGI [23]: > 100 µM
- TGI [24]: > 100 µM
- TGI [25]: > 100 µM
- TGI [26]: > 100 µM
- TGI [27]: > 100 µM
- TGI [28]: > 100 µM
- TGI [29]: > 100 µM
- TGI [30]: > 100 µM
- TGI [31]: > 100 µM
- TGI [32]: > 100 µM
- TGI [33]: > 100 µM
- TGI [34]: > 100 µM
- TGI [35]: > 100 µM
- TGI [36]: > 100 µM
- TGI [37]: > 100 µM
- TGI [38]: > 100 µM
- TGI [39]: > 100 µM
- TGI [40]: > 100 µM
- TGI [41]: > 100 µM
- TGI [42]: > 100 µM
- TGI [43]: > 100 µM
- TGI [44]: > 100 µM
- TGI [45]: > 100 µM
- TGI [46]: > 100 µM
- TGI [47]: > 100 µM
- TGI [48]: > 100 µM
- TGI [49]: > 100 µM
- TGI [50]: > 100 µM
- TGI [51]: > 100 µM
- TGI [52]: > 100 µM
- TGI [53]: > 100 µM
- TGI [54]: > 100 µM
- TGI [55]: > 100 µM

Compound: Clc1nc2n(c1/C=C/c1cccs1)CCS2
- TGI [1]: > 100 µM
- TGI [2]: 46.6 µM
- TGI [3]: > 100 µM
- TGI [4]: > 100 µM
- TGI [5]: > 100 µM
- TGI [6]: > 100 µM
- TGI [56]: > 100 µM
- TGI [7]: 95.5 µM
- TGI [8]: > 100 µM
- TGI [9]: > 100 µM
- TGI [10]: > 100 µM
- TGI [11]: > 100 µM
- TGI [12]: > 100 µM
- TGI [13]: > 100 µM
- TGI [15]: > 100 µM
- TGI [16]: > 100 µM
- TGI [17]: > 100 µM
- TGI [18]: > 100 µM
- TGI [19]: > 100 µM
- TGI [57]: > 100 µM
- TGI [20]: > 100 µM
- TGI [21]: > 100 µM
- TGI [22]: 55.2 µM
- TGI [23]: 32.9 µM
- TGI [24]: > 100 µM
- TGI [25]: > 100 µM
- TGI [27]: > 100 µM
- TGI [28]: 48.8 µM
- TGI [29]: 87.9 µM
- TGI [30]: > 100 µM
- TGI [32]: > 100 µM
- TGI [33]: 96.6 µM
- TGI [34]: > 100 µM
- TGI [58]: > 100 µM
- TGI [35]: > 100 µM
- TGI [37]: > 100 µM
- TGI [38]: > 100 µM
- TGI [39]: > 100 µM
- TGI [40]: > 100 µM
- TGI [41]: 48.7 µM
- TGI [42]: > 100 µM
- TGI [43]: 90.4 µM
- TGI [44]: > 100 µM
- TGI [45]: > 100 µM
- TGI [46]: > 100 µM
- TGI [47]: > 100 µM
- TGI [48]: > 100 µM
- TGI [49]: > 100 µM
- TGI [51]: 35.2 µM
- TGI [52]: > 100 µM
- TGI [59]: 69.3 µM
- TGI [53]: > 100 µM
- TGI [54]: 95.8 µM
- TGI [55]: 57.9 µM

From PubChem BioAssay (NCI)
